Our source for the selectivity ratio and Spasm. activ. values is patent US4889849A, “Spasmolytically active tertiary amine derivatives” (Duphar International Research B.V., priority 1984, dated 1989).

Each structure is given as a SMILES string.

A short description of data set [1]: Peripheral muscarinolytic side effect (saliva/tear secretion, oxotremorine) relative to spasmolytic activity. Conditions: mouse, in vivo, ip. As for the experimental part: (§1) The choice of the dosage depends on the nature and the severity of the disease.
(§2) 3. Muscarinolytic "side effects".
(§3) The compounds to be tested and oxotremorine were administered intraperitoneally to femal DAP-mice at the same instant or, in case of analgesia, also 30 minutes previously.
(§4) Inhibition of the tremors and/or analgesia caused by oxotremorine is a measure of the central muscarinolytic activity, while the inhibition of saliva secretion or tear secretion reflects the peripheral muscarinolytic activity.

For data set [2], the system named is ileum of the guinea pig. Kind of data set: Spasmolytic activity in vivo (effect on the ileum of the guinea pig, contractions induced with intravenous carbachol). The following applies: atropine = 1. As for the experimental part:
Effect on the ileum of the guinea pig.
The spasmolytic effect of the compounds was tested on the ilea of urethane-narcotised, empty-stomach guinea pigs of approximately 500 g (Zwagemakers, Arzn. Forsch. 30, 1517 (1980). Contractions of the intestine were induced every 7 minutes with intravenously administered carbachol in a dose of 5 μg per kg of body weight. After constant response had been reached, the test compounds were administered 3 minutes before the next dose of carbachol was given and the protecting effect was studied for 52 minutes. The contractions after administration of the test compounds were expressed as a percentage of the average of two control values. The average percentage of inhibition was calculated throughout the 52 minutes from the region under the curve. The maximum percentage of inhibition and the duration of the spasmolytic effect were also determined. The spasmolytic effect was considered to be finished when two successive contractions were 20% or less of the control value.

Data set [3] can be described thus: Central muscarinolytic side effect (tremors/analgesia, oxotremorine) relative to spasmolytic activity. The following applies: mouse, in vivo, ip. The method, then:
as §1, §2, §3, §4

`CCN(CCCC(=O)C1CCCCC1)C(C)Cc1ccc(OC)cc1` (stereo not shown) [Secoverine]: the selectivity ratio in data set [1] is 50; in data set [3] it was 2. This compound also gave a Spasm. activ. in data set [2] of 0.6.

On to `CN1[C@@H]2CC[C@H]1C[C@@H](OC(=O)C(CO)c1ccccc1)C2` (stereo partly shown) [Atropine], for which, in data set [2], the Spasm. activ. is listed as 1.
